Test system: PC3 prostate cancer cells
Experiment: Cell viability of prostate cancer PC3 cells after 72 hours treatment
Format: cell-based
Settings: Homo sapiens; for viability at 2.5 µM: PC-3, 2.5 μM; for viability at 5 µM: PC-3, 5 μM; for viability at 10 µM: PC-3, 10 μM; for viability at 20 µM: PC-3, 20 μM
Method: Effects of compounds LLS42-LLS80 on the viability of PC3 prostate cancer cells after 72 hours of treatment are shown in Table 2 below: […]

SMILES | viability at 2.5 µM [%] | viability at 5 µM [%] | viability at 10 µM [%] | viability at 20 µM [%]
NC(=O)CC(NCc1cccc2ccccc12)c1ccc2c(c1)nc(-c1ccc(N(CCO)CCO)cc1)n2Cc1ccc(C(F)(F)F)cc1 (stereo not drawn) [LLS73, 3-(2-(4-(bis(2-hydroxyethyl)amino)phenyl)-1-(4-(trifluoromethyl)benzyl)-1H-benzo[d]imidazol-5-yl)-3-((naphthalen-1-ylmethyl)amino)propanamide] | 94 | 92 | 69 | 8
COc1ccc(CCn2c(-c3ccc(N(CCOC(C)=O)CCOC(C)=O)cc3)nc3cc(C(N)CC(N)=O)ccc32)cc1 (stereo not drawn) [LLS76, ((4-(5-(1,3-diamino-3-oxopropyl)-1-(4-methoxyphenethyl)-1H-benzo[d]imidazol-2-yl)phenyl)azanediyl)bis(ethane-2,1-diyl) Diacetate] | 92 | 86 | 86 | 85
CC(=O)OCCN(CCOC(C)=O)c1ccc(-c2nc3cc(C(CC(N)=O)NCc4ccc(-c5ccncc5)cc4)ccc3n2CCCn2ccnc2)cc1 (stereo not drawn) [LLS58Ac, ((4-(1-(3-(1H-imidazol-1-yl)propyl)-5-(3-amino-3-oxo-1-((4-(pyridin-4-yl)benzyl)amino)propyl)-1H-benzo[d]imidazol-2-yl)phenyl)azanediyl)bis(ethane-2,1-diyl) Diacetate] | 100 | 98 | 91 | 83
NC(=O)CC(NCC1CCCCC1)c1ccc2c(c1)nc(-c1ccc(N(CCO)CCO)cc1)n2Cc1ccc(C(F)(F)F)cc1 (stereo not drawn) [LLS71, 3-(2-(4-(bis(2-hydroxyethyl)amino)phenyl)-1-(4-(trifluoromethyl)benzyl)-1H-benzo[d]imidazol-5-yl)-3-((cyclohexylmethyl)amino)propanamide] | 91 | 83 | 59 | 3
COc1cc(CNC(CC(N)=O)c2ccc3c(c2)nc(-c2ccc(N(CCOC(C)=O)CCOC(C)=O)cc2)n3C(C)C)cc(Br)c1OC (stereo not drawn) [LLS43Ac, ((4-(5-(3-amino-1-((3-bromo-4,5-dimethoxybenzyl)amino)-3-oxopropyl)-1-isopropyl-1H-benzo[d]imidazol-2-yl)phenyl)azanediyl)bis(ethane-2,1-diyl) Diacetate] | 97 | 102 | 103 | 97
NC(=O)CC(NCc1ccc(Cl)c(Cl)c1)c1ccc2c(c1)nc(-c1ccc(N(CCO)CCO)cc1)n2CCCN1CCCCC1 (stereo not drawn) [LLS46, 3-(2-(4-(bis(2-hydroxyethyl)amino)phenyl)-1-(3-(piperidin-1-yl)propyl)-1H-benzo[d]imidazol-5-yl)-3-((3,4-dichlorobenzyl)amino)propanamide] | 86 | 97 | 92 | 94
NC(=O)CC(NCc1ccc2[nH]ncc2c1)c1ccc2c(c1)nc(-c1ccc(N(CCO)CCO)cc1)n2Cc1ccc(OC(F)(F)F)cc1 (stereo not drawn) [LLS55, 3-(((1H-indazol-5-yl)methyl)amino)-3-(2-(4-(bis(2-hydroxyethyl)amino)phenyl)-1-(4-(trifluoromethoxy)benzyl)-1H-benzo[d]imidazol-5-yl)propanamide] | 91 | 100 | 102 | 92
COc1ccc(CCn2c(-c3ccc(N(CCO)CCO)cc3)nc3cc(C(CC(N)=O)NCc4ccc5[nH]ncc5c4)ccc32)cc1 (stereo not drawn) [LLS53, 3-(((1H-indazol-5-yl)methyl)amino)-3-(2-(4-(bis(2-hydroxyethyl)amino)phenyl)-1-(4-methoxyphenethyl)-1H-benzo[d]imidazol-5-yl)propanamide] | 93 | 91 | 98 | 105
COc1ccc(CCn2c(-c3ccc(N(CCOC(C)=O)CCOC(C)=O)cc3)nc3cc(C(CC(N)=O)NCc4ccc5[nH]ccc5c4)ccc32)cc1 (stereo not drawn) [LLS69Ac, ((4-(5-(1-(((1H-indol-5-yl)methyl)amino)-3-amino-3-oxopropyl)-1-(4-methoxyphenethyl)-1H-benzo[d]imidazol-2-yl)phenyl)azanediyl)bis(ethane-2,1-diyl) Diacetate] | 101 | 95 | 73 | 2
CN1CCN(c2ccc(-c3nc4cc(C(CC(N)=O)NCc5ccc(Cl)c(Cl)c5)ccc4n3Cc3ccc(C(F)(F)F)cc3)cc2)CC1 (stereo not drawn) [LLS64, 3-((3,4-dichlorobenzyl)amino)-3-(2-(4-(4-methylpiperazin-1-yl)phenyl)-1-(4-(trifluoromethyl)benzyl)-1H-benzo[d]imidazol-5-yl)propanamide] | 94 | 83 | 60 | 3
NC(=O)CC(NCc1cccn1S(=O)(=O)c1ccccc1)c1ccc2c(c1)nc(-c1ccc(N(CCO)CCO)cc1)n2CCCN1CCCCC1 (stereo not drawn) [LLS52, 3-(2-(4-(bis(2-hydroxyethyl)amino)phenyl)-1-(3-(piperidin-1-yl)propyl)-1H-benzo[d]imidazol-5-yl)-3-(((1-(phenylsulfonyl)-1H-pyrrol-2-yl)methyl)amino)propanamide] | 97 | 96 | 87 | 84
NCCn1c(-c2ccc(N(CCO)CCO)cc2)nc2cc(C(CC(N)=O)NCc3ccc(Br)s3)ccc21 (stereo not drawn) [LLS45, 3-(1-(2-aminoethyl)-2-(4-(bis(2-hydroxyethyl)amino)phenyl)-1H-benzo[d]imidazol-5-yl)-3-(((5-bromothiophen-2-yl)methyl)amino)propanamide] | 92 | 102 | 118 | 117
CC(=O)OCCN(CCOC(C)=O)c1ccc(-c2nc3cc(C(CC(N)=O)NCc4ccc(-c5ccn[nH]5)s4)ccc3n2CCCN(C)C)cc1 (stereo not drawn) [LLS78, ((4-(5-(1-(((5-(1H-pyrazol-5-yl)thiophen-2-yl)methyl)amino)-3-amino-3-oxopropyl)-1-(3-(dimethylamino)propyl)-1H-benzo[d]imidazol-2-yl)phenyl)azanediyl)bis(ethane-2,1-diyl) Diacetate] | 97 | 93 | 101 | 100
COc1ccc(CCn2c(-c3ccc(N(CCO)CCO)cc3)nc3cc(C(CC(N)=O)NCC4CCCCC4)ccc32)cc1 (stereo not drawn) [LLS56] | 104 | 105 | 98 | 93
CC(=O)OCCN(CCO)c1ccc(-c2nc3cc(C(CC(N)=O)NCc4ccc(-c5ccncc5)cc4)ccc3n2CCCn2ccnc2)cc1 (stereo not drawn) [LLS67, 2-((4-(1-(3-(1H-imidazol-1-yl)propyl)-5-(3-amino-3-oxo-1-((4-(pyridin-4-yl)benzyl)amino)propyl)-1H-benzo[d]imidazol-2-yl)phenyl)(2-hydroxyethyl)amino)ethyl Acetate] | 93 | 94 | 99 | 93

From patent US10844052B2, “LLS compounds for treatment of cancer” (THE REGENTS OF THE UNIVERSITY OF CALIFORNIA, priority 2016, dated 2020)
